For one experiment, the system named is SD rats. As to the kind of experiment: application of test substance onto dehaired abdominal skin of fattened SD rats for 2 weeks; weight of each fat measured. The experiment is classed as in vivo, rat. The following applies: applied onto abdominal skin, 2 ml of 5 mg/ml ethanol solution daily for 2 weeks, n=3, p<0.05.
For experiment [1] the following is noted: orally administered, approximately 120 mg/day over 8 weeks; cited from earlier work.

Method for SD rats: The abdomen of each fat rat was dehaired (20 mm square). Thereafter, 2 ml of a phytostenone-containing composition (30 mg/ml ethanol solution) used as a test substance, 2 ml of campest-5-en-3-one (5 mg/ml ethanol solution) used as a test substance, or 2 ml of an ethanol solution used as a control was applied gently with a cotton to individual rats divided into the groups (n=3 in each group). This operation was carried out continuously for 2 weeks. After termination of the application test, the rats were dissected, and liver fat, epididymal fat, perirenal fat, mesenteric fat, and subcutaneous fat were carefully recovered. Thereafter, the weight of each fat was measured.
Herein, in the present example, the significance test was carried out as follows. First, the mean value±standard error in each group was calculated, and a variance test was then carried out. In the case of equal variance, the significance test was carried out according to the t-test, and in the case of unequal variance, the significance test was carried out according to the Welch method.

Consider `CC(C)[C@H](C)CC[C@@H](C)[C@H]1CC[C@H]2[C@@H]3CC=C4CC(=O)CC[C@]4(C)[C@H]3CC[C@]12C` [campest-5-en-3-one], for which the “reduction of the amount of subcutaneous fat compared with the control (ethanol solution)” value in the experiment with SD rats was “approximately 16%”. For the same compound, the “subcutaneous fat reduction percentage” value in experiment [1] is 26%.
